Measured values: patent publication US20240217963A1, “RECEPTOR-INTERACTING PROTEIN 1 INHIBITORS, PREPARATIONS, AND USES THEREOF” (SIRONAX LTD., priority 2021, published 2024)

Molecular target: T1, RIP1 (Homo sapiens, UniProt Q13546)
T1 sequence (Q13546 1-671): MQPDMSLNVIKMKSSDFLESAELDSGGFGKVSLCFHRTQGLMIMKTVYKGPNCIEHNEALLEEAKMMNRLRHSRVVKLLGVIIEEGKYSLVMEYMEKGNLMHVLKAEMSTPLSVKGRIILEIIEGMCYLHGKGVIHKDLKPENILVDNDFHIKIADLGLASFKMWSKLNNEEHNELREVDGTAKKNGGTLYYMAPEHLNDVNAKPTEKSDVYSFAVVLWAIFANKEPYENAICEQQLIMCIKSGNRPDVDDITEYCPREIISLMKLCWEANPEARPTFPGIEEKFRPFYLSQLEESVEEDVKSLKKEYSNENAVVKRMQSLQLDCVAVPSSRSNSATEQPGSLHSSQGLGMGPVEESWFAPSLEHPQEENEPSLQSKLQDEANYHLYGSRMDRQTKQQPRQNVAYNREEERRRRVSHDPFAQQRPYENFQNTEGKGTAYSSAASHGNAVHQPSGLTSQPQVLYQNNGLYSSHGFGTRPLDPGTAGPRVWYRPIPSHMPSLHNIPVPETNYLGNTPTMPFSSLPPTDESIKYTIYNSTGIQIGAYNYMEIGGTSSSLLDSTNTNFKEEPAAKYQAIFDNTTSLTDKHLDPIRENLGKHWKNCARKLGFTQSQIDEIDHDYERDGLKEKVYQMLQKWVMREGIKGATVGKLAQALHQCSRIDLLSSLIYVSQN
Test: Cellular RIP1 inhibitory activity: HT-29 necroptosis (TNFα/SMAC mimetic/zVAD-FMK) CellTiter-Glo viability assay
Assay type: cell-based
Conditions: HT-29 cells, TNF-α 10 ng/ml + SMAC mimetic 6 μM + zVAD-FMK 10 μM, 20 hours, geometric mean, read-out: EC50 Values of in vitro Cellular RIP1 Inhibitory Activity

SMILES	EC50 [µM]
Cc1cnn(C)c1-c1nc(N2CCN(C(=O)N(O)Cc3cc(F)cc(F)c3)CC2)ncc1F [Compound 29, N-(3,5-difluorobenzyl)-4-(4-(1,4-dimethyl-1H-pyrazol-5-yl)-5-fluoropyrimidin-2-yl)-N-hydroxypiperazine-1-carboxamide]	0.0001 to 0.1
Cc1nc(C)n(-c2nc(N3CCC(C(=O)NCc4cc(F)cc(F)c4F)CC3)ncc2F)n1 [Compound 5, 1-(4-(3,5-dimethyl-1H-1,2,4-triazol-1-yl)-5-fluoropyrimidin-2-yl)-N-(2,3,5-trifluorobenzyl)piperidine-4-carboxamide]	0.0001 to 0.1
CCN(Cc1cc(C)n(C)n1)C(=O)C1CCN(c2ncc(F)c(-c3c(C)cnn3C)n2)CC1 [Compound 80, N-((1,5-dimethyl-1H-pyrazol-3-yl)methyl)-1-(4-(1,4-dimethyl-1H-pyrazol-5-yl)-5-fluoropyrimidin-2-yl)-N-ethylpiperidine-4-carboxamide]	0.1 to 1
Cc1cnn(C)c1-c1nc(N2CCC(C(=O)N(O)Cc3ccc(F)nc3)CC2)ncc1F [Compound 26]	0.0001 to 0.1
Cc1nc(C)n(-c2nc(N3CCC(C(=O)N(C)Cc4cc(F)cc(F)c4)CC3)ncc2F)n1 [Compound 64, N-(3,5-difluorobenzyl)-1-(4-(3,5-dimethyl-1H-1,2,4-triazol-1-yl)-5-fluoropyrimidin-2-yl)-N-methylpiperidine-4-carboxamide]	0.0001 to 0.1
[2H]C([2H])([2H])N(C(=O)C1CCN(c2ncc(F)c(-c3ncnn3C)n2)CC1)C([2H])([2H])c1cc(F)cc(F)c1F [Compound 75, 1-(5-fluoro-4-(1-methyl-1H-1,2,4-triazol-5-yl)pyrimidin-2-yl)-N-(methyl-d3)-N-((2,3,5-trifluorophenyl)methyl-d2)piperidine-4-carboxamide]	0.0001 to 0.1
Cc1nc(C)n(-c2nc(N3CCC(C(=O)N(O)Cc4ccccn4)CC3)ncc2F)n1 [Compound 7, 1-(4-(3,5-dimethyl-1H-1,2,4-triazol-1-yl)-5-fluoropyrimidin-2-yl)-N-h ydroxy-N-(pyridin-2-ylmethyl)piperidine-4-carboxamide]	0.1 to 1
[2H]C([2H])([2H])N(C(=O)C1CCN(c2nc(-c3c(C)cnn3C)ncc2F)CC1)C([2H])([2H])c1cc(F)cc(F)c1F [Compound 73, 1-(2-(1,4-dimethyl-1H-pyrazol-5-yl)-5-fluoropyrimidin-4-yl)-N-(methyl-d3)-N-((2,3,5-trifluorophenyl)methyl-d2)piperidine-4-carboxamide]	0.0001 to 0.1
[2H]C([2H])([2H])N(Cc1nccs1)C(=O)C1CCN(c2ncc(F)c(-c3c(C)cnn3C)n2)CC1 [Compound 77, 1-(4-(1,4-dimethyl-1H-pyrazol-5-yl)-5-fluoropyrimidin-2-yl)-N-(methyl-d3)-N-(thiazol-2-ylmethyl)piperidine-4-carboxamide]	0.0001 to 0.1
Cc1cnn(C)c1-c1nc(N2CCC(C(=O)N(O)Cc3ncccc3F)CC2)ncc1F [Compound 8, 1-(4-(1,4-dimethyl-1H-pyrazol-5-yl)-5-fluoropyrimidin-2-yl)-N-((3-fluoropyridin-2-yl)methyl)-N-hydroxypiperidine-4-carboxamide]	0.0001 to 0.1
Cc1cnn(C)c1-c1nc(N2CCC(C(=O)N(O)Cc3cccnc3)CC2)ncc1F [Compound 38, 1-(4-(1,4-dimethyl-1H-pyrazol-5-yl)-5-fluoropyrimidin-2-yl)-N-hydroxy-N-(pyridin-3-ylmethyl)piperidine-4-carboxamide]	0.0001 to 0.1
Cc1cnn(C)c1-c1nc(N2CCC(C(=O)NCc3cc(F)cc(F)c3F)CC2)ncc1F [Compound 6, 1-(4-(1,4-dimethyl-1H-pyrazol-5-yl)-5-fluoropyrimidin-2-yl)-N-(2,3,5-trifluorobenzyl)piperidine-4-carboxamide]	0.0001 to 0.1
[2H]C([2H])([2H])N(C(=O)C1CCN(c2ncc(F)c(-c3c(C)cnn3C)n2)CC1)C([2H])([2H])c1cc(F)cc(F)c1F [Compound 74, 1-(4-(1,4-dimethyl-1H-pyrazol-5-yl)-5-fluoropyrimidin-2-yl)-N-(methyl-d3)-N-((2,3,5-trifluorophenyl)methyl-d2)piperidine-4-carboxamide]	0.0001 to 0.1
CCN(Cc1cncs1)C(=O)C1CCN(c2ncc(F)c(-c3c(C)cnn3C)n2)CC1 [Compound 99, 1-(4-(1,4-dimethyl-1H-pyrazol-5-yl)-5-fluoropyrimidin-2-yl)-N-ethyl-N-(thiazol-5-ylmethyl)piperidine-4-carboxamide]	0.0001 to 0.1
Cc1cnn(C)c1-c1nc(N2CCC(C(=O)NCc3cnn(C)c3)CC2)ncc1F [Compound 45, 1-(4-(1,4-dimethyl-1H-pyrazol-5-yl)-5-fluoropyrimidin-2-yl)-N-((1-methyl-1H-pyrazol-4-yl)methyl)piperidine-4-carboxamide]	1 to 10
Cc1cnn(C)c1-c1nc(N2CCC(C(=O)N(O)Cc3cnsc3)CC2)ncc1F [Compound 51]	0.0001 to 0.1
Cc1cnn(C)c1-c1nc(N2CCC(C(=O)NCc3cscn3)CC2)ncc1F [Compound 57, 1-(4-(1,4-dimethyl-1H-pyrazol-5-yl)-5-fluoropyrimidin-2-yl)-N-(thiazol-4-ylmethyl) piperidine-4-carboxamide]	0.1 to 1
Cc1cnn(C)c1-c1ncc(F)c(N2CCC(C(=O)N(O)Cc3cc(F)cc(F)c3)CC2)n1 [Compound 55, N-(3,5-difluorobenzyl)-1-(2-(1,4-dimethyl-1H-pyrazol-5-yl)-5-fluoropyrimidin-4-yl)-N-hydroxypiperidine-4-carboxamide]	0.0001 to 0.1
